US12403104B2, “Compounds and methods of promoting myelination” (Case Western Reserve University, priority 2016, dated 2025)
“And” between values parts separate entries of the source, which are not always exact repeats. Equal entries are not always repeated. Structures can show the parent of a compound that is named as a salt. Where two headings read alike, the source gives them in different places.

Experiments:
[1] = system: mouse epiblast stem cell-derived OPCs; assay: In vitro phenotypic screening of OPCs (MBP+ oligodendrocytes at 72 h); type: cell-based
Experimental: Then, 40,000 cells were seeded per well in differentiation medium and allowed to attach for 30 min before addition of drug. […] Sterols were added to cells as an ethanol solution (0.2% final ethanol concentration). […] Cells were incubated under standard conditions (37° C., 5% CO2) for 3 days and fixed with 4% paraformaldehyde (PFA) in phosphate buffered saline (PBS) for 20 min. Fixed plates were washed with PBS (200 μL per well) twice, permeabilized with 0.1% Triton X-100 and blocked with 10% donkey serum (v/v) in PBS for 40 min. […] Nuclei were visualized by DAPI staining (Sigma; 1 μg/ml).

OPCs (OPC-1 derivation) = assay: High-throughput screening of 3,000 bioactive small molecules for MBP+ oligodendrocyte formation; conditions: 2 μM, 72 h; for % Oligos: MBP+; for fold-change in % MBP + oligodendrocytes: relative to DMSO controls of the same plate
Text: Plates were imaged on the Operetta High Content Imaging and Analysis system (PerkinElmer) and a set of 6 fields captured from each well resulting in an average of 1200 cells being scored per well. Analysis (PerkinElmer Harmony and Columbus software) began by identifying intact nuclei stained by DAPI; that is, those traced nuclei that were larger than 300 μm^2 in surface area. Each traced nucleus region was then expanded by 50% and cross-referenced with the […] (MBP) stain to identify oligodendrocyte nuclei, and from this the percentage of oligodendrocytes was calculated. In some experiments, the total process length of MBP+ oligodendrocytes was calculated as previously described.
EpiSC-derived OPCs were grown and expanded in poly-ornithine and laminin-coated flasks before harvesting for plating. Cells were dispensed in differentiation media supplemented with Noggin (R&D Systems; 100 ng/ml), Neurotrophin 3 (R&D Systems; 10 ng/ml), cAMP (Sigma; 50 μM), and IGF-1 (R&D Systems; 100 ng/ml)) using a Biotek EL406 Microplate Washer Dispenser (Biotek) equipped with 5 μL dispense cassette (Biotek), into poly-D-lysine/laminin (Sigma, L2020; 4 μg/ml)-coated sterile, 384-well, CellCarrier ultra plates (PerkinElmer), to a final density of 12,500 cells per well and allowed to attach for 45 min before addition of drug. A 3 mM stock of bioactive compound library in dimethylsulphoxide (DMSO) were prepared in an Abgene storage 384-well plate (ThermoFisher Scientific; AB1055). These were added to assay plates using a 50 nL solid pin tool attached to Janus automated workstation (Perkin Elmer), resulting in a final screening concentration of 2 μM. Cells were incubated at 37° C. for 1 hour and then T3 (Sigma; 40 ng/ml) was added to all wells except negative controls, to which FGF (20 ng/ml) was added instead. Negative controls and T3-alone were included in each assay plate. After incubation at 37° C. for 72 h, cells were fixed, washed and stained similar to 96-well OPC assay protocol, although all the washing steps were performed using a Biotek EL406 Microplate Washer Dispenser (Biotek) equipped with a 96-well aspiration manifold. Cells were stained with DAPI (Sigma; 1 μg/ml) and MBP antibody (Abeam, ab7349; 1:100). Plates were imaged on the Operetta High Content Imaging and Analysis system (PerkinElmer) and a set of 4 fields captured from each well resulting in an average of 700 cells being scored per well. Analysis was performed as in High-Content Imaging and Analysis, above. All plates for the primary screen were processed and analyzed simultaneously to minimize variability. Molecules causing more than 20% reduction in nuclear count relative to DMSO control wells were removed from consideration, and hits were called on the basis of largest fold-increase in percentage of MBP+ oligodendrocytes relative to DMSO controls within the same plate.

rat CYP51 = target: T1, rat CYP51 (Rattus norvegicus, UniProt Q64654); assay: CYP51 enzymatic assay (LC/MS quantitation of FF-MAS); type: biochemical
T1 construct: purchased Cypex, Inc
T1 sequence (Q64654 1-503): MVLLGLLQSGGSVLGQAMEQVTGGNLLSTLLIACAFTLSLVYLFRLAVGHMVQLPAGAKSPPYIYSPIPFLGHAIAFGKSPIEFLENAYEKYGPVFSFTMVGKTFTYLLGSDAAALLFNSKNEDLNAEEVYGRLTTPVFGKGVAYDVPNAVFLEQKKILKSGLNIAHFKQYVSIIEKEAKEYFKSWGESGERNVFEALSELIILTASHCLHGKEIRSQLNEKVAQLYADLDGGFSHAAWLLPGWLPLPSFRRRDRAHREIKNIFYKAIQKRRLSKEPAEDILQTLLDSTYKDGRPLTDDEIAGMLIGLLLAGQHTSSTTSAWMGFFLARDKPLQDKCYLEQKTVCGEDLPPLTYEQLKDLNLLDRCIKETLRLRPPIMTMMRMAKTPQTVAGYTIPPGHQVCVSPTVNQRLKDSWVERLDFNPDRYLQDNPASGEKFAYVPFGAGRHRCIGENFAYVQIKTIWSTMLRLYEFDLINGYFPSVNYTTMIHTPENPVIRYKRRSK
Experimental: Finally, 15 μl of each reaction/isopropanol mixture was injected onto a SCIEX Triple Quad 6500 LC-MS/MS system using an APCI ion source in positive ion mode with a Shimadzu UFLC-20AD HPLC and a Phenomenex

OPCs = assay: GC/MS-based sterol profiling in OPCs; type: cell-based, mouse; conditions: for sterol levels / sterol intermediate accumulation in OPCs: 24 h treatment (siRNA 96 h)
EBP = target: T2, EBP (Mus musculus, UniProt P70245); assay: EBP enzymatic assay (GC/MS); type: biochemical; conditions: 10 μM, zymostenol 25 μM
T2 construct: active EBP was obtained from mouse microsomes; from tissue
T2 sequence (P70245 1-230): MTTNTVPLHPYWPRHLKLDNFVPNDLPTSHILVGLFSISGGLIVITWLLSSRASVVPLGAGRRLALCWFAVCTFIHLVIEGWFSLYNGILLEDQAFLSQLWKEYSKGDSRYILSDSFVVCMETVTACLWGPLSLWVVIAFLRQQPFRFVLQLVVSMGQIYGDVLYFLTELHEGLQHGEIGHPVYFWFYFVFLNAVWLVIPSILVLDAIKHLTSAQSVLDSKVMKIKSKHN

T47D cells = conditions: 5 days
[2] = listed as Raloxifene hydrochloride, HCl

CC(C)CCC[C@@H](C)[C@H]1CC[C@H]2C3=C(CC[C@]12C)[C@@]1(C)CC[C@H](O)C[C@@H]1CC3 [zymostenol, Zymostenol] was tested, and the “formation of MBP+ oligodendrocytes from OPCs” value (“formation” for short) [1] was “enhanced the formation of MBP+ oligodendrocytes”.
Cl.Cl.OCCOCCN1CCN(C(c2ccccc2)c2ccc(Cl)cc2)CC1 (stereo not drawn) [Hydroxyzine 2HCl] was tested, and the “cell viability (% relative to DMSO)” value (OPCs (OPC-1 derivation)) was 134.19%, the “% Oligos” value (OPCs (OPC-1 derivation)) was 40.63% and the “fold-change in % MBP + oligodendrocytes” value (OPCs (OPC-1 derivation)) was 4.80.
For CC(=O)N1CCN(c2ccc(OC[C@@H]3CO[C@](Cn4ccnc4)(c4ccc(Cl)cc4Cl)O3)cc2)CC1 (stereo in doubt) [R-trans-Ketoconazole], the “inhibition of mammalian CYP51 in vitro” value (rat CYP51) was “strikingly less effective at inhibiting mammalian CYP51”.
For Cc1cc(NC(=O)Nc2ccc(N(C)C)cc2)c2cc(F)cc(F)c2n1 [SB408124], the “cell viability (% relative to DMSO)” value (OPCs (OPC-1 derivation)) was 106.19% and the “% Oligos” value (OPCs (OPC-1 derivation)) was 39.63%.
With Varenicline tartrate the “cell viability (% relative to DMSO)” value (OPCs (OPC-1 derivation)) was 144.02% and the “% Oligos” value (OPCs (OPC-1 derivation)) was 22.86%.
In the case of CCC(C)(C)c1ccc(CC(C)CN2C[C@@H](C)O[C@@H](C)C2)cc1 (stereo partly drawn) [amorolfine, Amorolfine], the “formation” value [1] is reported as “enhanced formation of MBP+ oligodendrocytes”.
With CC(=O)N1CCN(c2ccc(OC[C@H]3CO[C@@](Cn4ccnc4)(c4ccc(Cl)cc4Cl)O3)cc2)CC1 (stereo in doubt) [S-trans-Ketoconazole] the “inhibition of mammalian CYP51 in vitro” value (rat CYP51) was “strikingly less effective at inhibiting mammalian CYP51”.
In the case of C[C@]12CC[C@@H]3c4ccc(O)cc4C[C@@H](CCCCCCCCC[S+]([O-])CCCC(F)(F)C(F)(F)F)[C@H]3[C@@H]1CC[C@@H]2O (stereo partly drawn) [Fulvestrant], the “cholesterol pathway enzyme inhibited in OPCs (from sterol profile)” value (“cholesterol pathway enzyme inhibited” below) (OPCs; GC/MS, 24 h) is reported as “targeted CYP51”.
With OCCOCCN1CCN(C(c2ccccc2)c2ccc(Cl)cc2)CC1 (stereo not drawn) [hydroxyzine, Hydroxyzine] the “inhibition of EBP enzymatic activity” value (EBP) was “directly inhibiting EBP enzymatic activity”.
For COc1ccc(S(=O)(=O)N2CCC(N3CCC(C)CC3)CC2)cc1 [TASIN-1, Tasin-1], the “formation” value [1] was “enhanced formation of MBP+ oligodendrocytes” and the “inhibition of EBP enzymatic activity” value (EBP) was “clear inhibition”.
Cl.Clc1ccc(N2CCN(Cc3c[nH]c4ncccc34)CC2)cc1 [L-745,870 hydrochloride] was tested, and the “% Oligos” value (OPCs (OPC-1 derivation)) was 32.61%.
For N[C@@H](Cc1cc(I)c(Oc2ccc(O)c(I)c2)c(I)c1)C(=O)O [liothyronine, Liothyronine], the “sterol levels / sterol intermediate accumulation in OPCs” value (OPCs; GC/MS) was “minimal effects on sterol levels”.
CC(C)CCC[C@@H](C)[C@H]1CC=C2C3=C(CC[C@@]21C)[C@@]1(C)CCC(O)CC1CC3 (stereo partly drawn) [14-dehydrozymostenol, cholesta-8,14-dien-β-ol] was tested, and the “formation” value [1] was “enhanced the formation of MBP+ oligodendrocytes”.
With CC(C)=CCC[C@@H](C)[C@H]1CC[C@@]2(C)C3=C(CC[C@]12C)[C@@]1(C)CC[C@H](O)C(C)(C)[C@@H]1CC3 [lanosterol, Lanosterol] the “formation” value [1] was “enhanced formation of MBP+ oligodendrocytes in a dose-responsive fashion”.
In the case of CN(C)CCOc1ccc(/C(=C(/CCCl)c2ccccc2)c2ccccc2)cc1 [toremifene, Toremifene], the “formation” value [1] is reported as “enhanced MBP+ oligodendrocyte generation over a wide dose range”, the “cholesterol pathway enzyme inhibited” value (OPCs; GC/MS, 24 h) is reported as “inhibited EBP” and the “antiestrogen effects on estrogen-dependent growth” value (T47D cells) is reported as “comparable antiestrogen effects”.
Cl.O[Si](CCCN1CCCCC1)(c1ccc(F)cc1)C1CCCCC1 (stereo not drawn) [Hexahydro-sila-difenidol hydrochloride, p-fluoro analog] was tested, and the “% Oligos” value (OPCs (OPC-1 derivation)) was 26.76%.
In the case of OCCOc1ccc(/C(=C(/CCCl)c2ccccc2)c2ccccc2)cc1 [ospemifene, Ospemifene], the “formation” value [1] is reported as “did not enhance differentiation to MBP+ oligodendrocytes”, the “cholesterol pathway enzyme inhibited” value (OPCs) is reported as “did not inhibit EBP in OPCs” and the “antiestrogen effects on estrogen-dependent growth” value (T47D cells) is reported as “comparable antiestrogen effects”.
For CN1CCC[C@@H]1CCO[C@](C)(c1ccccc1)c1ccc(Cl)cc1 [clemastine, Clemastine], the “sterol levels / sterol intermediate accumulation in OPCs” value (OPCs; GC/MS) was “induced accumulation of zymostenol and zymosterol and decreased basal sterol levels”.
CN1[C@@H]2CC[C@H]1C[C@@H](OC(c1ccccc1)c1ccccc1)C2 [benztropine, Benztropine] was tested, and the “sterol levels / sterol intermediate accumulation in OPCs” value (OPCs; GC/MS) was “induced accumulation of zymostenol and zymosterol and decreased basal sterol levels” and the “inhibition of EBP enzymatic activity” value (EBP) was “clear inhibition”.
For CC(C)CCC[C@@H](C)[C@H]1CC[C@H]2[C@@H]3CC=C4C[C@@H](O)CC[C@]4(C)[C@H]3CC[C@]12C [cholesterol, Cholesterol], the “formation” value [1] was “ineffective”.
With O=C(c1ccc(OCCN2CCCCC2)cc1)c1c(-c2ccc(O)cc2)sc2cc(O)ccc12 [Raloxifene HCl] the “% Oligos” value (OPCs (OPC-1 derivation); HCl) was 35.01%, the “% Oligos” value (OPCs (OPC-1 derivation); [2]) was 33.33% and the “fold-change in % MBP + oligodendrocytes” value (OPCs (OPC-1 derivation); [2]) was 3.77.
C=C(c1ccc(C(=O)O)cc1)c1cc2c(cc1C)C(C)(C)CCC2(C)C [bexarotene, Bexarotene] was tested, and the “sterol levels / sterol intermediate accumulation in OPCs” value (OPCs; GC/MS) was “minimal effects on sterol levels”.
CCN(CC)CCCCCCCCOC(=O)c1cc(OC)c(OC)c(OC)c1.Cl [TMB-8 hydrochloride] was tested, and the “cell viability (% relative to DMSO)” value (OPCs (OPC-1 derivation)) was 139.42% and the “% Oligos” value (OPCs (OPC-1 derivation)) was 18.47%.
In the case of Ifenprodil Tartrate, the “cell viability (% relative to DMSO)” value (OPCs (OPC-1 derivation)) is reported as 103.79%, the “% Oligos” value (OPCs (OPC-1 derivation)) is reported as 41.41% and the “% Oligos” value (OPCs (OPC-1 derivation); listed as ifenprodil tartrate) is reported as 33.69%. The “fold-change in % MBP + oligodendrocytes” value (OPCs (OPC-1 derivation)) was 4.89, the “fold-change in % MBP + oligodendrocytes” value (OPCs (OPC-1 derivation); listed as ifenprodil tartrate) was 3.61 and the “cell viability (% relative to DMSO)” value (OPCs (OPC-1 derivation); listed as ifenprodil tartrate) was 106.02%.
With (±)-Vesamicol the “cell viability (% relative to DMSO)” value (OPCs (OPC-1 derivation)) was 112.02% and the “% Oligos” value (OPCs (OPC-1 derivation)) was 34.23%.
Clc1ccc(C(Cn2ccnc2)OCc2c(Cl)cccc2Cl)c(Cl)c1 (stereo not drawn) [Isoconazole nitrate] was tested, and the “% Oligos” value (OPCs (OPC-1 derivation)) was 53.25%.
OC(Cn1cncn1)(Cn1cncn1)c1ccc(F)cc1F [fluconazole, Fluconazole] was tested, and the “inhibition of mammalian CYP51 in vitro” value (rat CYP51) was “did not inhibit mammalian CYP51 in vitro”.
In the case of Clc1ccccc1C(c1ccccc1)(c1ccccc1)n1ccnc1 [Clotrimazole], the “% Oligos” value (OPCs (OPC-1 derivation)) is reported as 34.36% and 27.93% and the “fold-change in % MBP + oligodendrocytes” value (OPCs (OPC-1 derivation)) is reported as 5.88.
